In publication PMC9925730, “Controlled sequential in situ self-assembly and disassembly of a fluorogenic cisplatin prodrug for cancer theranostics” (Nature Communications, 2023):

Test: GSH-triggered reduction, disassembly of Pt^IVNPs and CDDP release in solution (HPLC, DLS, TEM, ICP-OES)
Set-up: amount of compound in the P-CyPt solution (HPLC, Fig. 2h) / mean size by TEM (Fig. 2i) / mean size by DLS (Fig. 2i): unit not given here
Conditions: for Pt release (ICP-OES, Fig. 2h) / amount of compound in the P-CyPt solution (HPLC, Fig. 2h) / mean size by DLS (Fig. 2i) / mean size by TEM (Fig. 2i): P-CyPt 10 μM
Method: To evaluate the ALP-triggered dephosphorylation and in situ self-assembly process, a solution of P-CyPt (10 μM) in Tris buffer (1 mL) was incubated with ALP (100 U/L) at 37 °C. HPLC, DLS, and TEM analyses were performed at 0, 5, 10, 15, 20, and 30 min. To evaluate the GSH-triggered reduction and disassembly process, P-CyPt (10 μM) in Tris buffer (1 mL) was first incubated with ALP (100 U/L) at 37 °C for 30 min to allow the formation of Pt^IVNPs. The solution was then treated with 10 mM GSH at 37 °C, which was monitored by HPLC, DLS, and TEM at 10, 20, 30, 40, 50, and 60 min.
(a) 5 mM GSH 10 mM GSH(b ) (c)
60 min 60 min CyPt Cy- CO O H
Time (min) Time (min) Time (min)
Supplementary Figure 9. HPLC traces of the time-dependent conversion of PtIVNPs (CyPt) into Cy-COOH under incubation with 5 mM (a) or 10 mM GSH (b) in Tris buffer. (c) The conversion curves of PtIVNPs (CyPt) into Cy-COOH under incubation with 5 mM (red) or 10 mM GSH (black) in Tris buffer. P-CyPt (10 μM) was incubated with ALP (100 U/L, 37 °C) in Tris buffer for 30 min to allow complete dephosphorylation and in situ self-assembly into PtIVNPs. Then, GSH at a concentration of 5 mM or 10 mM was added and incubated for another 0, 10, 20, 30, 40, 50, and 60 min. The amounts of CyPt and Cy-COOH at each time point were quantified by HPLC.
Date are mean ± s.d. (n = 3 independent experiments). […]
Release of CDDP from PtIVNPs during disassembly process. P-CyPt (10 μM) in 5 mL Tris buffer was incubated with ALP (100 U/L) at 37 °C for 30 min to form PtIVNPs, followed by addition with 10 mM GSH at 37 °C. After 10, 20, 30, 40, 50 and 60 min, 50 mM N-ethylmaleimide was added into the solution to scavenge GSH. The reaction solution was centrifuged at 13,000 × g and the supernatant was collected. The supernatants were digested with concentrated HNO3 (65~70%) and HCl (36~38%) at 90 °C for 24 h. The solution was diluted to 5 mL 2% HNO3 and 5% HCl solution, and the concentration of Pt element was measured by ICP-OES, which was further applied to calculate the amount of CDDP (denoted as NPt) released in the solution. The percentage of Pt release at each time point was calculated according to the formula:
Pt release % = NPt/N0 × 100% (9)
Where N0 represents the total amount of Pt in the in situ formed PtIVNPs, and NPt represents the amount of Pt released from PtIVNPs following incubation with GSH.
Characterization of enzyme kinetics of P-CyPt towards ALP. Briefly, varying concentrations of P-CyPt (0.5, 1.0, 2.0, 3.0, 4.0, and 5.0 μM) in 100 μL Tris buffer were placed in a 96-well black plate. The reactions were initiated upon addition of 100 μL ALP (30 U/L) to each solution. The resulting fluorescence intensities in each well in the first five minutes were recorded on a Spark™ 10M Multimode Microplate Reader (λex/em = 680/710 nm). The amount of CyPt at each time point was determined by a standard curve under the same conditions. Kinetics values, including Km and Vmax, were determined according to the Lineweaver-Burk plot.
Determination of the sensitivity of P-CyPt towards ALP. To evaluate the sensitivity of P-CyPt towards ALP, P-CyPt (10 μM) was incubated with varying concentrations of […]
30 min, and the fluorescence spectra were then recorded on a HORIBA Jobin Yvon Fluoromax-4 fluorometer, with an excitation at 680 nm. The resulting fluorescence intensities at 710 nm were plotted to the con centrations of ALP, and a linear regression fitted from 0 -20 U/L ALP was obtained, affording the slope k. The detection limit was calculated from 3σ/k, where σ represents the standard deviation of 11 blank […]
Determination of the specificity towards ALP. The specificity towards ALP in vitro was evaluated based on fluorescence, respectively. P-CyPt (10 μM) in Tris buffer was incubated with 10 nmol/L of MMP-2, 100 U/L of γ-glutamyl transferase (GGT), 100 U/L Cathepsin B (CTB), 0.2 μg/mL of Caspase-3/7, 2.5 mg/mL of Trypsin, 100 U/L of ALP or 100 U/L ALP pretreated with its inhibitors, Na 3VO4 (100 μM) for 10 min. The […]

[1] = ALP 30 min then GSH 10 mM 10 min (time 40)
[2] = ALP 30 min then GSH 10 mM 20 min (time 50)
[3] = ALP 30 min then GSH 10 mM 30 min (time 60)
[4] = ALP 30 min then GSH 10 mM 40 min (time 70)
[5] = ALP 30 min then GSH 10 mM 50 min (time 80)
[6] = ALP 30 min then GSH 10 mM 60 min (time 90)

SMILES: CC1(C)C(/C=C/C2=C3Oc4cc(OP(=O)(O)O)c(Cl)cc4C=C3CCC2)=[N+](CCCNC(=O)[C@@H](Cc2ccccc2)NC(=O)[C@@H](Cc2ccccc2)NC(=O)CCC(=O)[O][Pt]([NH2])([NH2])([OH])([Cl])[Cl])c2ccccc21 [P-CyPt]
- Pt release (ICP-OES, Fig. 2h) [1]: 19.98%
- amount of compound in the P-CyPt solution (HPLC, Fig. 2h) [1]: 0
- mean size by DLS (Fig. 2i) [1]: 133.97
- mean size by TEM (Fig. 2i) [1]: 128.24
- Pt release (ICP-OES, Fig. 2h) [2]: 42.65%
- amount of compound in the P-CyPt solution (HPLC, Fig. 2h) [2]: 0
- mean size by DLS (Fig. 2i) [2]: 96.71
- mean size by TEM (Fig. 2i) [2]: 91.24
- Pt release (ICP-OES, Fig. 2h) [3]: 64.34%
- amount of compound in the P-CyPt solution (HPLC, Fig. 2h) [3]: 0
- mean size by DLS (Fig. 2i) [3]: 62.38
- mean size by TEM (Fig. 2i) [3]: 68.92
- Pt release (ICP-OES, Fig. 2h) [4]: 80.43%
- amount of compound in the P-CyPt solution (HPLC, Fig. 2h) [4]: 0
- mean size by DLS (Fig. 2i) [4]: 35.90
- mean size by TEM (Fig. 2i) [4]: 38.87
- Pt release (ICP-OES, Fig. 2h) [5]: 95.70%
- amount of compound in the P-CyPt solution (HPLC, Fig. 2h) [5]: 0
- mean size by DLS (Fig. 2i) [5]: 14.84
- mean size by TEM (Fig. 2i) [5]: 11.31
- Pt release (ICP-OES, Fig. 2h) [6]: 99.63%
- amount of compound in the P-CyPt solution (HPLC, Fig. 2h) [6]: 0
- mean size by DLS (Fig. 2i) [6]: 0.00
- mean size by TEM (Fig. 2i) [6]: 0.00

SMILES: CC1(C)C(/C=C/C2=C3Oc4cc(O)c(Cl)cc4C=C3CCC2)=[N+](CCCNC(=O)[C@@H](Cc2ccccc2)NC(=O)[C@@H](Cc2ccccc2)NC(=O)CCC(=O)[O][Pt]([NH2])([NH2])([OH])([Cl])[Cl])c2ccccc21 [CyPt]
- reduction of CyPt in Pt^IVNPs into Cy-COOH (HPLC) (5 or 10 mM GSH, after 60 min): completely reduced into Cy-COOH
- amount of compound in the P-CyPt solution (HPLC, Fig. 2h) [1]: 82.67
- amount of compound in the P-CyPt solution (HPLC, Fig. 2h) [2]: 59.68
- amount of compound in the P-CyPt solution (HPLC, Fig. 2h) [3]: 38.50
- amount of compound in the P-CyPt solution (HPLC, Fig. 2h) [4]: 22.16
- amount of compound in the P-CyPt solution (HPLC, Fig. 2h) [5]: 9.16
- amount of compound in the P-CyPt solution (HPLC, Fig. 2h) [6]: 0.00
